Measurements: publication PMC6138628, “Enhanced uptake of gH625 by blood brain barrier compared to liver in vivo: characterization of the mechanism by an in vitro model and implications for delivery” (Scientific Reports, 2018)
Starred links: 1 amine or outer side, 2 acyl side, 3 side chain; linkers in the order of their positions; H or OH if unused. Non-standard residues stand in square brackets, D forms with d. Residues, ends and D or L forms follow the SMILES beside them. X1 = O=C([C@H](Cc1c[nH]cn1)N(c1ccc([N+](=O)[O-])c2nonc12)[*:1])[*:2]

Legend:
liver = assay: In vivo liver uptake, fluorescence microscopy of rat liver slices; parameters: species or system male Wistar rats; conditions: single i.v. 10, 20, 40 µg/100 g bw, 3.5 hours
Method: In vivo studies were performed in male Wistar rats housed under a 12 hours light-dark cycle with free access to food and water. The animals were allocated in five groups, each consisting of three rats. Three animal groups received a single i.v. administration of NBD-gH625 at a concentration of 10 µg, 20 µg, and 40 µg/100 g bw, respectively. Control group received vehicle while another group received gH-625 (40 µg/100 g bw). Both NBD-gH625 and gH625 were dissolved in phosphate-buffered saline. After 3.5 hours from the i.v. administration, the animals were anesthetized with Zoletil® (40 mg/100 g) and euthanized by decapitation. This study was carried out in strict accordance with recommendations in the European Guide for the Care and Use of Laboratory Animals. […]
(§1) To evaluate the effect of concentration on the systemic delivery of NBD-gH625, a fluorescence microscopy analysis was performed as previously reported.
Briefly, livers and brains were isolated and fixed for 24 hours in Bouin’s fixative (71% picric acid, 5% acetic acid, 24% formaldehyde) and embedded in paraffin wax (Carlo Erba, Milan, Italy). […] All images were then analysed using Fiji 1.50 software to determine the mean fluorescence and the integrated density, defined as the product of the mean fluorescence per the region of interest (μm^2)[32]. The percentage of delivered vs administered NBD-gH625 was calculated.

brain / BBB = assay: In vivo brain uptake, fluorescence microscopy of rat brain; parameters: species or system male Wistar rats
Method: In vivo studies were performed in male Wistar rats housed under a 12 hours light-dark cycle with free access to food and water. The animals were allocated in five groups, each consisting of three rats. Three animal groups received a single i.v. administration of NBD-gH625 at a concentration of 10 µg, 20 µg, and 40 µg/100 g bw, respectively. Control group received vehicle while another group received gH-625 (40 µg/100 g bw). Both NBD-gH625 and gH625 were dissolved in phosphate-buffered saline. After 3.5 hours from the i.v. administration, the animals were anesthetized with Zoletil® (40 mg/100 g) and euthanized by decapitation. This study was carried out in strict accordance with recommendations in the European Guide for the Care and Use of Laboratory Animals. Every effort was made to minimize animal pain and suffering. All animal protocols were approved by the Committee on the Ethics of Animal Experiments of the University of Napoli Federico II (Italy) and the Italian Minister of Health. (Protocol number 2012/000180).
The ex-vivo fluorescence microscopy analysis was performed to evaluate the distribution of NBD-gH625 on both sides of the BBB. In order to evaluate if there is a linear relationship between slides fluorescence integrated density and the amount of the peptide, a calibration curve was obtained. In particular, increasing amounts of NBD-gH625 (0–30 µM) were spotted on microscope slides and images at 515 nm were acquired (See the Results section) and analysed as described below. Brains were removed from animals, sectioned sagittally in thick slices, washed in PBS, mounted on coverslips, stained with DAPI (4′–6 Diamidino-2-Phenylindole, Dilactate) (Invitrogen, Carlsbad, CA, USA) and analysed under Axioskop fluorescence microscope (Zeiss). Images, at least 10 field of view (800 × 700 μm each) for each experimental class, were acquired using an AxioCam MRc5 (Zeiss) with DAPI filter (λex 350 nm; λem 461 nm) and a fluorescein isothiocyanate filter (λex 488 nm; λem 515 nm).
To evaluate the distribution of NBD-gH625 on both sides of the BBB, we estimated the fluorescence inside the blood vessels (without discriminating between the amount present in the blood and that present in the endothelial cells) and outside the blood vessels in 10 images for each experimental class. In detail, to assess the NBD-gH625 that reached without crossing the BBB, we selected blood vessels as the region of interest (ROI) (inbound) and evaluated the fluorescence intensity; then, on the non-zero thresholded images, an inversion of selected ROI was carried out to obtain the complementary ROI to calculate the amounts of NBD-gH625 which crossed the BBB (outbound).
The morphology of blood vessels was easily identified and outlined; the images were calibrated by ImageJ Rodbard function; integrated density values were calculated within the outlines exclusively, to be considered as inside fluorescence. Then, the thresholded and outlined images, to exclude both blood vessels and background values, were used to calculate the integrated density as outside fluorescence.
as §1
Briefly, livers and brains were isolated and fixed for 24 hours in Bouin’s fixative (71% picric acid, 5% acetic acid, 24% formaldehyde) and embedded in paraffin wax (Carlo Erba, Milan, Italy). Tissue sections (10 μm of thickness) were incubated in 0.1% Sudan Black B dissolved in 70% ethanol for 20 minutes to reduce the tissues autofluorescence. The excess of Sudan Black B was removed by washing with Tris-buffered saline containing 0.02% Tween 20[30],[31]. Sections were stained with DAPI to counterstain nuclei, then mounted with a coverslip in glycerol/phosphate-buffered saline (1:1) and acquired using an AxioCam MRc5 with DAPI filter (λex 350 nm; λem 461 nm) and a fluorescein isothiocyanate filter (λex 488 nm; λem 515 nm). […]

[1] = single i.v., 3.5 hours after administration, ex vivo brain slices, 515 nm

CC[C@H](C)[C@H](NC(=O)[C@H](CC(C)C)NC(=O)[C@H](C)NC(=O)[C@H](CC(N)=O)NC(=O)[C@H](Cc1ccc(O)cc1)NC(=O)[C@H](Cc1c[nH]cn1)NC(=O)[C@H](C)NC(=O)[C@H](Cc1c[nH]c2ccccc12)NC(=O)[C@H](CCCNC(=N)N)NC(=O)[C@@H](NC(=O)[C@H](CC(C)C)NC(=O)[C@@H](NC(=O)[C@H](CO)NC(=O)[C@H](C)NC(=O)[C@H](CC(C)C)NC(=O)CNC(=O)[C@H](Cc1c[nH]cn1)Nc1ccc([N+](=O)[O-])c2nonc12)[C@@H](C)O)[C@@H](C)O)C(=O)N[C@@H](CCCNC(=N)N)C(=O)N[C@@H](C)C(=O)N[C@@H](Cc1ccccc1)C(N)=O [NBD-gH625] (H-[X1]GLASTLTRWAHYNALIRAF-NH2)
Integrated density of fluorescence on liver slices, dependence on dose (liver): lowest dose of NBD-gH625 has higher effect
Percentage of peptide delivered in liver vs administered, dependence on dose (liver; integrated density calibrated with known amounts): lower doses produced higher percentages of delivered peptide
Integrated density of fluorescence on brain slices (brain / BBB; single i.v. 40 µg/100 g bw, 3.5 hours): comparable to the control
Integrated density of fluorescence on brain slices, dependence on dose (brain / BBB; single i.v. 10, 20, 40 µg/100 g bw, 3.5 hours): lower peptide concentrations are able to improve the reaching of the brain more compared to higher concentrations
Percentage of peptide delivered in brain vs administered, dependence on dose (brain / BBB; single i.v. 10, 20, 40 µg/100 g bw, 3.5 hours, integrated density calibrated with known amounts): lower doses produced higher percentages of delivered peptide
Peptide crossing the BBB (fluorescence outside blood vessels, brain parenchyma) (brain / BBB; [1]): crosses the BBB
Peptide delivered to the BBB (fluorescence inside blood brain vessels, integrated density) (brain / BBB; [1]): reaches the BBB of treated animals
